Results taken from patent publication US12630498B2 (Genzyme Corporation, priority 2019, dated 2026).

What was measured:
[1] = molecular target: T1, human Cystic Fibrosis Transmembrane Conductance Regulator (CFTR) harboring the ΔF508 mutation (Homo sapiens, UniProt P13569, DEL508-508); experiment: H441 cell ΔF508-CFTR-HRP cell surface assay (Emax and EC50); assay type: cell-based; settings: for Emax: NCI-H441, NA = Not active
T1 construct: expressed in transfected cells; host or cells: H441 carcinoma line (G418-selected)
Procedure, shortened: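 H441 and 41o- bronchial epithelial cells expressing ΔF508-CFTR with an extracellular-loop-4 HRP tag were treated with a 15-point compound series (24.5–0.001 μM) for two nights, H441 at 27° C, 41o- at 37° C with 0.0005 mg/ml doxycycline. Surface HRP luminescence read; % of maximum VX809 signal and EC50 derived.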

[2] = molecular target: T2, CFTR-mediated transepithelial chloride transport in primary human bronchial epithelial cells from a ΔF508 homozygous CF donor (Homo sapiens, UniProt P13569, DEL508-508); experiment: TECC24 recording of CFTR-mediated transepithelial chloride transport in CF-HBE cells (AUC fold over DMSO); assay type: cell-based; settings: test agent 10 μM, 48 hours incubation, AUC of forskolin-stimulated IEQ relative to DMSO
T2 construct: Primary human bronchial epithelial cells from a ΔF508 homozygous CF donor; host or cells: primary CF-HBE cells, ΔF508 homozygous donor
Method: Example 316: TECC24 AUC Fold Over DMSO @ 10 uM
The effects of a test agent on CFTR-mediated transepithelial chloride transport was measured using TECC24 recording analysis. Test agents were solubilized in DMSO. Solubilized test agents were mixed with incubation medium containing DMEM/F12, Ultroser G (2%; Crescent Chemical, catalog #67042), Hyclone Fetal Clone II (2%; GE Healthcare, catalog #SH30066.02), bovine brain extract (0.25%; Lonza, catalog #CC-4098), insulin (2.5 μg/mL), IL-13 (10 ng/mL), hydrocortisone (20 nM), transferrin (2.5 μg/mL), triiodothyronine (500 nM), ethanolamine (250 nM), epinephrine (1.5 μM), phosphoethanolamine (250 nM), and retinoic acid (10 nM). Primary human bronchial epithelial cells from a ΔF508 homozygous CF donor (CF-HBE cells; from University of North Carolina Cystic Fibrosis Tissue Procurement Center), grown on Transwell HTS 24-well cell culture inserts (Costar, catalog #3378), were exposed to test agents or controls dissolved in incubation medium. The CF-HBE cells were cultured at 36.5° C. for 48 hours before TECC24 recordings were performed in the presence or absence of test agent, a positive control or vehicle (DMSO).
Following incubation, the transwell cell culture inserts containing the test agent or control-treated CF-HBE cells were loaded onto a TECC24 apparatus (TECC v7 or MTECC v2; EP Design) to record the transepithelial voltage (VT) and resistance (TEER) using 4 AgCl electrodes per well configured in current-clamp mode. The apical and basolateral bath solutions both contained (in mM) 140 NaCl, 5 KCl, 2 CaCl2), 1 MgCl2, 10 Hepes, and 10 glucose (adjusted to pH 7.4 with NaOH). To inhibit basal Na+ absorption, the ENaC inhibitor benzamil (10 μM) was added to the bath. Then, the adenylate cyclase activator, forskolin (10 μM), was added to the bath to activate CFTR. The forskolin-stimulated Cl-transport was halted by addition of CFTR inhibitor-172 (20 μM) to the bath at the end of the experiment to confirm specificity. VT and TEER recordings were digitally acquired at routine intervals using TECC or MTECC software (EP Design). VT and TEER were transformed into equivalent transepithelial Cl-current (IEQ), and the Area Under the Curve (AUC) of the IEQ time course between forskolin and CFTR inhibitor-172 addition was generated using Excel (Microsoft). Efficacy is expressed as the ratio of the test agent AUC divided by vehicle AUC. EC50s based on AUC are generated using the non-linear regression log(agonist) vs. response function in Prism software (GraphPad) with Hill Slope fixed=1.
If a test agent increased the AUC of the forskolin-stimulated IEQ relative to vehicle in CF-HBE cells, and this increase was inhibited by CFTR inhibitor-172, then the test agent was considered a CFTR corrector.

T2 sequence (P13569 with tags, fused parts or gaps DEL508-508): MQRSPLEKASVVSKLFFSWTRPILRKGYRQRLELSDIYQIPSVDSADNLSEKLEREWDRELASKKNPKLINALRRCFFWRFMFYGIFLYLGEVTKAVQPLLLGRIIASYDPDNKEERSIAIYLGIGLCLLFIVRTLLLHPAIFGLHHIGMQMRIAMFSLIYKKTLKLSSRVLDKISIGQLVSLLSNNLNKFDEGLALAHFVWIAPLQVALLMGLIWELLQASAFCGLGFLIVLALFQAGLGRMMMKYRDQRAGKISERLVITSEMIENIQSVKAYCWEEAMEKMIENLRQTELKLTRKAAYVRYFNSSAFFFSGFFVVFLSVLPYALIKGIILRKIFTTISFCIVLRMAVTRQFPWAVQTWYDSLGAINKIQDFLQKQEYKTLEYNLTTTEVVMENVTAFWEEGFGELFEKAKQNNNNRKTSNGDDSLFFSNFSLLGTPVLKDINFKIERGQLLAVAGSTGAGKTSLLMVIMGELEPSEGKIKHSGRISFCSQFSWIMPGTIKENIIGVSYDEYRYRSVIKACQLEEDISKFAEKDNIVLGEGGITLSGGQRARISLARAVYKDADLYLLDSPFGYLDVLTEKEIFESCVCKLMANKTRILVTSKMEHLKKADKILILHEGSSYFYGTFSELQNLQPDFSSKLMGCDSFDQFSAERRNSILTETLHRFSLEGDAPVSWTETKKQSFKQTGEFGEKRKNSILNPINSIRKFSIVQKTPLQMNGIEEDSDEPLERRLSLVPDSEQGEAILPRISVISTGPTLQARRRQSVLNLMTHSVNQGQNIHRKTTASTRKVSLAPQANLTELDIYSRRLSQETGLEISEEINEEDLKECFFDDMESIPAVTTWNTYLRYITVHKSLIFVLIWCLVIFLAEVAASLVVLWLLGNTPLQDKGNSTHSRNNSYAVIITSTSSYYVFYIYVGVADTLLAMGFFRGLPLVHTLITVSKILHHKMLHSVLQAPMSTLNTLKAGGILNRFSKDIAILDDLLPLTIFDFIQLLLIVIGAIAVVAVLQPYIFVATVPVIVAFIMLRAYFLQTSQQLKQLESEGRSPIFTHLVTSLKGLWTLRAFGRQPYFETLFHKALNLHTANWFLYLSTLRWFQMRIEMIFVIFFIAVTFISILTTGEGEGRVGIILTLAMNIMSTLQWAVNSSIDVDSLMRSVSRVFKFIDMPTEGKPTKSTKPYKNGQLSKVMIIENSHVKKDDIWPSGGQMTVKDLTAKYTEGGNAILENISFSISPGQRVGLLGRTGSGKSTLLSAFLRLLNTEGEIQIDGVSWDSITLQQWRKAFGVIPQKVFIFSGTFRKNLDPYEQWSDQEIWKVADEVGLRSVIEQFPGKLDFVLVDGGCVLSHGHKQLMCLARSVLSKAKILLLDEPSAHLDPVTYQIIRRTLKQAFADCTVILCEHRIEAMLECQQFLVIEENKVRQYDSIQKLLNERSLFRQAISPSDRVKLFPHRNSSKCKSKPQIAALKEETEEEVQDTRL
T1 sequence (P13569 with tags, fused parts or gaps DEL508-508): as above

Compound	EC50 [1]	Emax [1]	TECC24 AUC fold over DMSO @10 μM [2]
CC1(C(NC(=O)c2ccc3ccccc3c2OCc2ccc(S(=O)(=O)C(F)(F)F)cc2)C(=O)O)CCCCC1 (stereo not drawn) [Example 77, 2-(1-methylcyclohexyl)-2-(1-((4-((trifluoromethyl)sulfonyl)benzyl)oxy)-2-naphthamido)acetic Acid]	700 nM	78.9%	C (“C” refers to AUC @10 uM <4)
C#CC(C)(C)C(NC(=O)c1ccc2ccc(C)cc2c1OCc1ccc(C(F)(F)F)cc1)C(=O)O (stereo not drawn) [Example 219, 3,3-dimethyl-2-[[7-methyl-1-[[4-(trifluoromethyl)phenyl]methoxy]naphthalene-2-carbonyl]amino]pent-4-ynoic Acid]	400 nM	191%	A (“A” refers to AUC @10 uM >6)
CC(C)(S[C@@H]1C[C@@H]2CC[C@H]1C2)[C@H](NC(=O)c1ccc2ccccc2c1OCc1ccc(C(F)(F)F)cc1)C(=O)O [Example 173, (R)-3-(((1S,2R,4R)-bicyclo[2.2.1]heptan-2-yl)thio)-3-methyl-2-(1-((4-(trifluoromethyl)benzyl)oxy)-2-naphthamido)butanoic Acid]	700 nM	164%	B (“B” refers to AUC @10 uM between 4-6)
CCC(C)(C)C(NC(=O)c1ccc2ccc(C)cc2c1OCc1ccc(C(F)(F)F)cc1)C(=O)O (stereo not drawn) [Example 275, 3,3-Dimethyl-2-{[7-methyl-1-(4-trifluoromethyl-benzyloxy)-naphthalene-2-carbonyl]-amino}-pentanoic Acid]	200 nM	322%	A (“A” refers to AUC @10 uM >6)
CCC(C)(C)[C@H](NC(=O)c1ccc2ccc(C)cc2c1OCc1ccc(OC(F)(F)F)cc1)C(=O)O [Example 280, (S)-3,3-dimethyl-2-(7-methyl-1-((4-(trifluoromethoxy)benzyl)oxy)-2-naphthamido)pentanoic Acid]	300 nM	309%	A (“A” refers to AUC @10 uM >6)
CC(C)(C)[C@@H](NC(=O)c1ccc2ccc(F)cc2c1OCc1ccc(OC(F)(F)F)cc1)C(=O)O [Example 259, (2R)-2-[[7-fluoro-1-[[4-(trifluoromethoxy)phenyl]methoxy]naphthalene-2-carbonyl]amino]-3,3-dimethyl-butanoic Acid]	1700 nM	63.7%	A (“A” refers to AUC @10 uM >6)
CCC(C)(C)[C@H](NC(=O)c1ccc2ccccc2c1OCc1ccc(C(F)(F)F)cc1)C(=O)O [Example 78, (S)-3,3-dimethyl-2-(1-((4-(trifluoromethyl)benzyl)oxy)-2-naphthamido)pentanoic Acid]	400 nM	242%	A (“A” refers to AUC @10 uM >6)
COc1ccc2ccc(C(=O)N[C@H](C(=O)O)C(C)(C)C)c(OCc3ccc(C(F)(F)F)cc3)c2c1 [Example 308, (S)-2-(7-methoxy-1-((4-(trifluoromethyl)benzyl)oxy)-2-naphthamido)-3,3-dimethylbutanoic Acid]	500 nM	408%	A (“A” refers to AUC @10 uM >6)
CC(C)(C)[C@H](NC(=O)c1ccc2ccc(Br)cc2c1OCc1ccc(OC(F)(F)F)cc1)C(=O)O [Example 247, (2S)-2-[[7-bromo-1-[[4-(trifluoromethoxy)phenyl]methoxy]naphthalene-2-carbonyl]amino]-3,3-dimethyl-butanoic Acid]	100 nM	224%	A (“A” refers to AUC @10 uM >6)
CCCC(C)(CC)[C@H](NC(=O)c1ccc2ccc(F)cc2c1OCc1ccc(C(F)(F)F)cc1)C(=O)O (stereo partly drawn) [Example 291, (2S)-3-ethyl-2-(7-fluoro-1-((4-(trifluoromethyl)benzyl)oxy)-2-naphthamido)-3-methylhexanoic Acid]	400 nM	260%	A (“A” refers to AUC @10 uM >6)
CC(C)(C)[C@H](NC(=O)c1ccc2cc(F)ccc2c1OCc1nc2ccccc2s1)C(=O)O [Example 61, (S)-2-(1-(benzo[d]thiazol-2-ylmethoxy)-6-fluoro-2-naphthamido)-3,3-dimethylbutanoic Acid]	2700 nM	132%	C (“C” refers to AUC @10 uM <4)
CC(C)(C)[C@@H](NC(=O)c1ccc2ccc(C(F)(F)F)cc2c1OCc1ccc(OC(F)(F)F)cc1)C(=O)O [Example 287, (R)-3,3-dimethyl-2-(1-((4-(trifluoromethoxy)benzyl)oxy)-7-(trifluoromethyl)-2-naphthamido)butanoic Acid]	300 nM	57.1%	C (“C” refers to AUC @10 uM <4)
O=C(N[C@@H](Cc1ccccc1)C(=O)O)c1ccc2ccccc2c1OCc1ccc(F)cc1 [Example 94]	–	–	C (“C” refers to AUC @10 uM <4)
CC(C)(C)C[C@H](NC(=O)c1ccc2cc(F)ccc2c1OCc1ccc(Cl)c(Cl)c1)C(=O)O [Example 211, (S)-2-(1-((3,4-dichlorobenzyl)oxy)-6-fluoro-2-naphthamido)-4,4-dimethylpentanoic Acid]	–	–	C (“C” refers to AUC @10 uM <4)
CC(C)(c1ccccc1)[C@H](NC(=O)c1ccc2cc(F)ccc2c1OCc1ccc(SC(F)(F)F)cc1)C(=O)O [Example 10, (S)-2-(6-fluoro-1-((4-((trifluoromethyl)thio)benzyl)oxy)-2-naphthamido)-3-methyl-3-phenylbutanoic Acid]	–	–	C (“C” refers to AUC @10 uM <4)
CC(C)(C)c1ccc(COc2c(C(=O)N[C@@H](Cc3ccccc3)C(=O)O)ccc3ccccc23)cc1 [Example 96, (1-((4-(tert-butyl)benzyl)oxy)-2-naphthoyl)-L-phenylalanine]	–	–	C (“C” refers to AUC @10 uM <4)
O=C(N[C@@H](Cc1ccc(C(F)(F)F)cc1)C(=O)O)c1ccc2cc(F)ccc2c1OCc1ccc(OC(F)(F)F)cc1 [Example 194, (S)-2-(6-fluoro-1-((4-(trifluoromethoxy)benzyl)oxy)-2-naphthamido)-3-(4-(trifluoromethyl)phenyl)propanoic Acid]	–	–	C (“C” refers to AUC @10 uM <4)
CC(OCc1ccccc1)[C@H](NC(=O)c1ccc2ccccc2c1OCc1ccc(OC(F)(F)F)cc1)C(=O)O (stereo in doubt) [Example 188, O-benzyl-N-(1-((4-(trifluoromethoxy)benzyl)oxy)-2-naphthoyl)-L-allothreonine]	–	–	C (“C” refers to AUC @10 uM <4)
CCC(C)(C)[C@@H](NC(=O)c1ccc2ccc(C)cc2c1OCc1ccc(C(F)(F)F)cc1)C(=O)O [Example 305, (R)-3,3-dimethyl-2-(7-methyl-1-((4-(trifluoromethyl)benzyl)oxy)-2-naphthamido)pentanoic Acid]	–	–	A (“A” refers to AUC @10 uM >6)
C=C(C)C1CC=C(COc2c(C(=O)N[C@H](C(=O)O)C(C)(C)C)ccc3ccccc23)CC1 (stereo partly drawn) [Example 49, (2S)-3,3-dimethyl-2-(1-((4-(prop-1-en-2-yl)cyclohex-1-en-1-yl)methoxy)-2-naphthamido)butanoic Acid]	1500 nM	33.5%	–
